Test results published in patent US12440496B2, “Natriuretic peptide receptor a agonists useful for the treatment of cardiometabolic diseases, kidney disease and diabetes” (Merck Sharp & Dohme LLC, priority 2019, dated 2025).

Each compound was assayed against T1, hNPRA (Homo sapiens, UniProt P16066) (assay: NPRA Functional Cell Assay (cGMP HTRF, NPRA HEK JumpIn stable cells)). Settings: cGMP production, 1 hour at 37° C., 10-point dose response.
T1 construct: expressed in transfected cells
T1 sequence (P16066 33-1061): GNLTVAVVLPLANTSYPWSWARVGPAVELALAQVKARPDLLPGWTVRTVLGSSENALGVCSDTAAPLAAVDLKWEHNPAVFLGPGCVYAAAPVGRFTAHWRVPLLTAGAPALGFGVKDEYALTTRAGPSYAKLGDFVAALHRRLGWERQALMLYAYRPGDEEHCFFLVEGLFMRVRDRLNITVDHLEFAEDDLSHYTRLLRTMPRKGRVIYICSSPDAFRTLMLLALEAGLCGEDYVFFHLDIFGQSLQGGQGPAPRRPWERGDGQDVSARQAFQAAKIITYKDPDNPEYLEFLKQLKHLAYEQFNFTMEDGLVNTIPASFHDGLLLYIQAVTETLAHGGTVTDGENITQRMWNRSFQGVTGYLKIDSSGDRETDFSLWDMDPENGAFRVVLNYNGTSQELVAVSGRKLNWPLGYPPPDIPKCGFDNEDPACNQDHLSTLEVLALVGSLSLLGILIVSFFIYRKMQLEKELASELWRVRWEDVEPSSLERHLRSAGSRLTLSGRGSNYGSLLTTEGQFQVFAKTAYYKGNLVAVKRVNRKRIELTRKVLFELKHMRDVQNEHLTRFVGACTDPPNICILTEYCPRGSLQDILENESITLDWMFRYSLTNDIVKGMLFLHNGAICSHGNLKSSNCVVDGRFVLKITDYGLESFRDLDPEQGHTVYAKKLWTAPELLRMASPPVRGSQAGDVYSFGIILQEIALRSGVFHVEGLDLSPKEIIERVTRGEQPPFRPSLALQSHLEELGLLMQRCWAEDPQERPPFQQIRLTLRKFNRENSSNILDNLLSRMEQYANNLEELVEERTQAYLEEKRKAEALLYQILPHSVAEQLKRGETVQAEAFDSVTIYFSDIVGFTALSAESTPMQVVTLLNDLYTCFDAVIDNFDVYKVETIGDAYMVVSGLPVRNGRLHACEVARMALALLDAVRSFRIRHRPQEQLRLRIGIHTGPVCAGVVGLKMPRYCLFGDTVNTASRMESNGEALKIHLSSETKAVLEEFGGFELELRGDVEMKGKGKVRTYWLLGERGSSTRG
Type: cell-based
Method in brief: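 cGMP HTRF read-out after 1 hour compound treatment at 37° C. of human NPRA-expressing HEK JumpIn cells, 1500 cells/well, in buffer with phosphodiesterase inhibitors IBMX and RO20 (100 uM each). Signal converted to [cGMP] by calibration curve; EC50s fitted by 4-parameter logistic; 50 nM h-ANP as positive response.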
`CC(C)(C)[C@H]1CCc2nc3sc(C(=O)N[C@H](CCN4CCC(O)CC4)c4ccc(-c5c[nH]nc5C(F)(F)F)cc4)nc3cc2C1` (racemic) [Example 167, rac-(7S)-7-tert-butyl-N-[rac-(1R)-3-(4-hydroxypiperidin-1-ium-1-yl)-1-[4-[3-(trifluoromethyl)-1H-pyrazol-4-yl]phenyl]propyl]-5,6,7,8-tetrahydrothiazolo[5,4-b]quinoline-2-carboxamide; 2,2,2-trifluoroacetate] showed an EC50 of 666 nM.
`CC(C)(C)[C@H]1CCc2nc3sc(C(=O)N[C@H](CCN4CCC(O)CC4)c4ccc(-c5ccnc(N)c5)cc4)nc3cc2C1` (racemic) [Example 168, rac-(7S)-7-tert-butyl-N-[rac-(1R)-1-[4-(2-amino-4-pyridyl)phenyl]-3-(4-hydroxy-1-piperidyl)propyl]-5,6,7,8-tetrahydrothiazolo[5,4-b]quinoline-2-carboxamide] showed an EC50 of 773 nM.
`CC(C)(C)[C@H]1CCc2nc3sc(C(=O)N[C@H](CCN4CCC(O)CC4)c4ccc(-c5ncns5)cc4)nc3cc2C1` (racemic) [Example 169, rac-(7S)-7-tert-butyl-N-[rac-(1R)-3-(4-hydroxy-1-piperidyl)-1-[4-(1,2,4-thiadiazol-5-yl)phenyl]propyl]-5,6,7,8-tetrahydrothiazolo[5,4-b]quinoline-2-carboxamide] gave an EC50 of 793 nM.
`Cn1cnnc1-c1ccc([C@@H](CCN2CCC(O)CC2)NC(=O)c2nc3cc4c(nc3s2)CC[C@H](C(C)(C)C)C4)cc1` (racemic) [Example 170, rac-(7S)-7-tert-butyl-N-[rac-(1R)-3-(4-hydroxy-1-piperidyl)-1-[4-(4-methyl-1,2,4-triazol-3-yl)phenyl]propyl]-5,6,7,8-tetrahydrothiazolo[5,4-b]quinoline-2-carboxamide] showed an EC50 of 863 nM.
With `Cc1n[nH]cc1-c1ccc([C@@H](CCN2CCC(O)CC2)NC(=O)c2nc3cc4c(nc3s2)CC[C@H](C(C)(C)C)C4)cc1` (racemic) [Example 171, rac-(7S)-7-tert-butyl-N-[rac-(1R)-3-(4-hydroxy-1-piperidyl)-1-[4-(3-methyl-1H-pyrazol-4-yl)phenyl]propyl]-5,6,7,8-tetrahydrothiazolo[5,4-b]quinoline-2-carboxamide] the EC50 was 913 nM.
`CC(C)(C)[C@H]1CCc2nc3sc(C(=O)N[C@H](CCN4CCC(O)CC4)c4ccc(-c5cnc(O)c(C#N)c5)cc4)nc3cc2C1` (racemic) [Example 172, rac-(7S)-7-tert-butyl-N-[rac-(1R)-1-[4-(5-cyano-6-hydroxy-3-pyridyl)phenyl]-3-(4-hydroxypiperidin-1-ium-1-yl)propyl]-5,6,7,8-tetrahydrothiazolo[5,4-b]quinoline-2-carboxamide; 2,2,2-trifluoroacetate] was tested, and the EC50 was 925 nM.
`Cc1n[nH]c(C)c1-c1ccc([C@@H](CCN2CCC(O)CC2)NC(=O)c2nc3cc4c(nc3s2)CC[C@H](C(C)(C)C)C4)cc1` (racemic) [Example 173, rac-(7S)-7-tert-butyl-N-[rac-(1R)-1-[4-(3,5-dimethyl-1H-pyrazol-4-yl)phenyl]-3-(4-hydroxy-1-piperidyl)propyl]-5,6,7,8-tetrahydrothiazolo[5,4-b]quinoline-2-carboxamide] showed an EC50 of 959 nM.
Work on `Cc1[nH]cnc1-c1ccc([C@@H](CCN2CCC(O)CC2)NC(=O)c2nc3cc4c(nc3s2)CC[C@H](C(C)(C)C)C4)cc1` (racemic) [Example 174, rac-(7S)-7-tert-butyl-N-[rac-(1R)-3-(4-hydroxy-1-piperidyl)-1-[4-(5-methyl-1H-imidazol-4-yl)phenyl]propyl]-5,6,7,8-tetrahydrothiazolo[5,4-b]quinoline-2-carboxamide] yielded an EC50 of 991 nM.
`CC(C)(C)[C@H]1CCc2nc3sc(C(=O)N[C@H](CCN4CCC(O)CC4)c4ccc(-c5ccncc5N)cc4)nc3cc2C1` (racemic) [Example 175, rac-(7S)-7-tert-butyl-N-[rac-(1R)-1-[4-(3-amino-4-pyridyl)phenyl]-3-(4-hydroxy-1-piperidyl)propyl]-5,6,7,8-tetrahydrothiazolo[5,4-b]quinoline-2-carboxamide] gave an EC50 of 1020 nM.
With `CC(C)(C)[C@H]1CCc2nc3sc(C(=O)N[C@H](CCN4CCC(O)CC4)c4ccc(-c5cnoc5)cc4)nc3cc2C1` (racemic) [Example 176, rac-(7S)-7-tert-butyl-N-[rac-(1R)-3-(4-hydroxypiperidin-1-ium-1-yl)-1-(4-isoxazol-4-ylphenyl)propyl]-5,6,7,8-tetrahydrothiazolo[5,4-b]quinoline-2-carboxamide; 2,2,2-trifluoroacetate] the EC50 was 1030 nM.
`Cn1nnnc1-c1ccc([C@@H](CCN2CCC(O)CC2)NC(=O)c2nc3cc4c(nc3s2)CC[C@H](C(C)(C)C)C4)cc1` (racemic) [Example 177, rac-(7S)-7-tert-butyl-N-[rac-(1R)-3-(4-hydroxypiperidin-1-ium-1-yl)-1-[4-(1-methyltetrazol-5-yl)phenyl]propyl]-5,6,7,8-tetrahydrothiazolo[5,4-b]quinoline-2-carboxamide; 2,2,2-trifluoroacetate] was tested, and the EC50 was 1150 nM.
`CC(C)(C)[C@H]1CCc2nc3sc(C(=O)N[C@H](CCN4CCC(O)CC4)c4ccc(-c5nc[nH]c5C#N)cc4)nc3cc2C1` (racemic) [Example 178, rac-(7S)-7-tert-butyl-N-[rac-(1R)-1-[4-(5-cyano-1H-imidazol-4-yl)phenyl]-3-(4-hydroxy-1-piperidyl)propyl]-5,6,7,8-tetrahydrothiazolo[5,4-b]quinoline-2-carboxamide] showed an EC50 of 1250 nM.
For `Cn1cncc1-c1ccc([C@@H](CCN2CCC(O)CC2)NC(=O)c2nc3cc4c(nc3s2)CC[C@H](C(C)(C)C)C4)cc1` (racemic) [Example 179, rac-(7S)-7-tert-butyl-N-[rac-(1R)-3-(4-hydroxy-1-piperidyl)-1-[4-(3-methylimidazol-4-yl)phenyl]propyl]-5,6,7,8-tetrahydrothiazolo[5,4-b]quinoline-2-carboxamide], the EC50 was 1420 nM.
Compound `CC(C)(C)[C@H]1CCc2nc3sc(C(=O)N[C@H](CCN4CCC(O)CC4)c4ccc(-c5cnsc5)cc4)nc3cc2C1` (racemic) [Example 180, rac-(7S)-7-tert-butyl-N-[rac-(1R)-3-(4-hydroxy-1-piperidyl)-1-(4-isothiazol-4-ylphenyl)propyl]-5,6,7,8-tetrahydrothiazolo[5,4-b]quinoline-2-carboxamide] has an EC50 of 1440 nM.
`CC(C)(C)[C@H]1CCc2nc3sc(C(=O)N[C@H](CCN4CCC(O)CC4)c4ccc(-c5ncc(O)cc5F)cc4)nc3cc2C1` (racemic) [Example 181, rac-(7S)-7-tert-butyl-N-[rac-(1R)-1-[4-(3-fluoro-5-hydroxy-2-pyridyl)phenyl]-3-(4-hydroxypiperidin-1-ium-1-yl)propyl]-5,6,7,8-tetrahydrothiazolo[5,4-b]quinoline-2-carboxamide; 2,2,2-trifluoroacetate] gave an EC50 of 1440 nM.
Work on `CC(C)(C)[C@H]1CCc2nc3sc(C(=O)N[C@H](CCN4CCC(O)CC4)c4ccc(-c5cc(=O)[nH]c(=O)[nH]5)cc4)nc3cc2C1` (racemic) [Example 182, rac-(7S)-7-tert-butyl-N-[rac-(1R)-1-[4-(2,4-dioxo-1H-pyrimidin-6-yl)phenyl]-3-(4-hydroxy-1-piperidyl)propyl]-5,6,7,8-tetrahydrothiazolo[5,4-b]quinoline-2-carboxamide] yielded an EC50 of 1610 nM.
`CC(C)(C)[C@H]1CCc2nc3sc(C(=O)N[C@H](CCN4CCC(O)CC4)c4ccc(-c5cnsn5)cc4)nc3cc2C1` (racemic) [Example 183, rac-(7S)-7-tert-butyl-N-[rac-(1R)-3-(4-hydroxy-1-piperidyl)-1-[4-(1,2,5-thiadiazol-3-yl)phenyl]propyl]-5,6,7,8-tetrahydrothiazolo[5,4-b]quinoline-2-carboxamide] showed an EC50 of 1660 nM.
Work on `CC(C)(C)[C@H]1CCc2nc3sc(C(=O)N[C@H](CCN4CCC(O)CC4)c4ccc(-c5cc(F)c(O)c(F)c5)cc4)nc3cc2C1` (racemic) [Example 184, rac-(7S)-7-tert-butyl-N-[rac-(1R)-1-[4-(3,5-difluoro-4-hydroxy-phenyl)phenyl]-3-(4-hydroxypiperidin-1-ium-1-yl)propyl]-5,6,7,8-tetrahydrothiazolo[5,4-b]quinoline-2-carboxamide; 2,2,2-trifluoroacetate] yielded an EC50 of 1700 nM.
